From patent US20080312246A1, “Substituted Piperazines as Metabotropic Glutamate Receptor Antagonists” (AstraZeneca AB, priority 2005, published 2008)

Biological target: T1, human mGluR5d (Homo sapiens, UniProt P41594)
T1 construct: expressed in transfected cells; host or cells: GHEK (HEK cells expressing a glutamate transporter) for the IP3 assay
Test: Functional assessment of mGluR5 antagonism in cell lines expressing mGluR5d (FLIPR calcium mobilization / IP3 turnover; assay behind the values not specified)
Assay type: cell-based
Details: cells expressing human mGluR5d; FLIPR or IP3 assay not specified
Source text: The pharmacological properties of the compounds of the invention can be analyzed using standard assays for functional activity. Examples of glutamate receptor assays are well known in the art as described in for example Aramori et al., Neuron 8:757 (1992), Tanabe et al., Neuron 8:169 (1992), Miller et al., J. Neuroscience 15: 6103 (1995), Balazs, et al., J. Neurochemistry 69:151 (1997). The methodology described in these publications is incorporated herein by reference. Conveniently, the compounds of the invention can be studied by means of an assay that measures the mobilization of intracellular calcium, [Ca^2+]i in cells expressing mGluR5.
Intracellular calcium mobilization was measured by detecting changes in fluorescence of cells loaded with the fluorescent indicator fluo-3. Fluorescent signals were measured using the FLIPR system (Molecular Devices). […]
FLIPR experiments were done using a laser setting of 0.800 W and a 0.4 second CCD camera shutter speed. […] After each addition of the compound, the fluorescence signal was sampled 50 times at 1 second intervals followed by 3 samples at 5 second intervals. Responses were measured as the peak height of the response within the sample period. […]
We have validated a secondary functional assay for mGluR5d based on Inositol Phosphate (IP3) turnover. IP3 accumulation is measured as an index of receptor mediated phospholipase C turnover. […]

T1 sequence (P41594 21-942 isoform P41594-3 limits assumed): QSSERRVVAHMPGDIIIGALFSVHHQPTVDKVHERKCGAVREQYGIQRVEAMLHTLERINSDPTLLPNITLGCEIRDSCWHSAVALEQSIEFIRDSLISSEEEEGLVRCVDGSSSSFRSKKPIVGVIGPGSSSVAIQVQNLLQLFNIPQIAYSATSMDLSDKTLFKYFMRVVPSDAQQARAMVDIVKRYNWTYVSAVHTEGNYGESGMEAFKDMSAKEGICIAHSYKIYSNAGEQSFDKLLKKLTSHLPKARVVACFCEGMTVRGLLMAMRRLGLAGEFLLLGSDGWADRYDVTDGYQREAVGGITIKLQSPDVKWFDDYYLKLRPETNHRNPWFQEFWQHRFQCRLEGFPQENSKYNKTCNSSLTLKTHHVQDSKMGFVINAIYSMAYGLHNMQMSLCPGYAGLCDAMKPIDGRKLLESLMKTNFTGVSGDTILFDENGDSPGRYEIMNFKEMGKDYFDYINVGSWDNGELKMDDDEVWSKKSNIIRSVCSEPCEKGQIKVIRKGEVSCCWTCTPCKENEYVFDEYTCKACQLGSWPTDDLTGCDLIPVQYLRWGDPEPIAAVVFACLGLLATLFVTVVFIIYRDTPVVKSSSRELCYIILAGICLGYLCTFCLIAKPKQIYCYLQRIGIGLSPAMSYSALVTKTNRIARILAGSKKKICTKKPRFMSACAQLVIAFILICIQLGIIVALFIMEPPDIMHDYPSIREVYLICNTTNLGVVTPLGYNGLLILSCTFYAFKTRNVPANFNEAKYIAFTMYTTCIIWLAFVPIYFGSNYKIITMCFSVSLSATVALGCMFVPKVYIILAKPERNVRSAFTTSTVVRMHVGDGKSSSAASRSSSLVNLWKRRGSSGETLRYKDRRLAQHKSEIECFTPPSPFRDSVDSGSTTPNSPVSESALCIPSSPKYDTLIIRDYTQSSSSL

An IC50 of 1080 nM was found for `CC(c1cn(-c2cccc(Cl)c2)nn1)N1CCN(c2ncccc2C#N)CC1` (centres unmarked) [Example 15.16, 2-(4-{1-[1-(3-chlorophenyl)-1H-1,2,3-triazol-4-yl]ethyl}piperazin-1-yl)nicotinonitrile] in this work.
An IC50 of 159 nM was found for `CC(c1cn(-c2cccc(Cl)c2)nn1)N1CCN(c2ccc(C#N)cn2)CC1` (centres unmarked) [Example 15.17, 6-(4-{1-[1-(3-chlorophenyl)-1H-1,2,3-triazol-4-yl]ethyl}piperazin-1-yl)nicotinonitrile] in this work.
